Data on 27 compounds can be found in US8431565B2 (priority 2007, dated 2013).

The EC50 is the concentration that produces a half-maximal response.

The target in the experiment is human CB1 receptor (hCB1) (Homo sapiens, UniProt P21554). Type of experiment: cell-based.
human CB1 receptor (hCB1), sequence (P21554 whole entry): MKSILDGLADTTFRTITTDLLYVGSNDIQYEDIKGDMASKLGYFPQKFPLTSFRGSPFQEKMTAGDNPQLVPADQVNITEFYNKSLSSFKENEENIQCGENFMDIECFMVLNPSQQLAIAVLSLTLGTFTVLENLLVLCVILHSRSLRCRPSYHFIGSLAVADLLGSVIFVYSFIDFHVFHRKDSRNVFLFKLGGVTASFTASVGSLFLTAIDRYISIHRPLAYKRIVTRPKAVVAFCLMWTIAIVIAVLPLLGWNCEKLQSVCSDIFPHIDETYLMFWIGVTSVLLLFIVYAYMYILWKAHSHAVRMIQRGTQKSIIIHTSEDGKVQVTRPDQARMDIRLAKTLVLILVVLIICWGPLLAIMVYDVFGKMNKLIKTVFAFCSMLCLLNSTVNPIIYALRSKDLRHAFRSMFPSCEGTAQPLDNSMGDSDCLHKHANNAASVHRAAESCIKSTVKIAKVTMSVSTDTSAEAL
As for `CNC(=O)[C@@H](NC(=O)c1nc(-c2ccc(C(F)(F)F)cc2C)n2c1CN(C)CCC2)C(C)(C)C` [Compound 632, (S)-N-(3,3-dimethyl-1-(methylamino)-1-oxobutan-2-yl)-8-methyl-3-(2-methyl-4-(trifluoromethyl)phenyl)-6,7,8,9-tetrahydro-5H-imidazo[1,5-a][1,4]diazepine-1-carboxamide], the EC50 was over 10 µM.
For `CNC(=O)[C@@H](NC(=O)c1nc(-c2ccc(=O)n(C)c2)n2c1CN(C)CCC2)C(C)(C)C` [Compound 708, (S)-N-(3,3-dimethyl-1-(methylamino)-1-oxobutan-2-yl)-8-methyl-3-(1-methyl-6-oxo-1,6-dihydropyridin-3-yl)-6,7,8,9-tetrahydro-5H-imidazo[1,5-a][1,4]diazepine-1-carboxamide] the value was over 10 µM.
`CNC(=O)[C@@H](NC(=O)c1nc(-c2cnccc2Cl)n2c1CN(C)CCC2)C(C)(C)C` [Compound 627, (S)-3-(4-chloropyridin-3-yl)-N-(3,3-dimethyl-1-(methylamino)-1-oxobutan-2-yl)-8-methyl-6,7,8,9-tetrahydro-5H-imidazo[1,5-a][1,4]diazepine-1-carboxamide] showed an EC50 of over 10 µM.
Compound `CN1CCCn2c(-c3cc(Cl)c(F)cc3F)nc(C(=O)N3CCC(F)(F)C3)c2C1` [Compound 824, (3-(5-chloro-2,4-difluorophenyl)-8-methyl-6,7,8,9-tetrahydro-5H-imidazo[1,5-a][1,4]diazepin-1-yl)(3,3-difluoropyrrolidin-1-yl)methanone] displayed an EC50 of over 10 µM.
As to `CNC(=O)[C@@H](NC(=O)c1nc(-c2cc(F)c(F)cc2F)n2c1CN(c1cncc(Cl)n1)CCC2)C(C)(C)C` [Compound 718, (S)-8-(6-chloropyrazin-2-yl)-N-(3,3-dimethyl-1-(methylamino)-1-oxobutan-2-yl)-3-(2,4,5-trifluorophenyl)-6,7,8,9-tetrahydro-5H-imidazo[1,5-a][1,4]diazepine-1-carboxamide], the EC50 is over 10 µM.
For `CNC(=O)[C@@H](NC(=O)c1nc(-c2cnn(-c3ccccc3)c2C)n2c1CN(C)CCC2)C(C)(C)C` [Compound 709, (S)-N-(3,3-dimethyl-1-(methylamino)-1-oxobutan-2-yl)-8-methyl-3-(5-methyl-1-phenyl-1H-pyrazol-4-yl)-6,7,8,9-tetrahydro-5H-imidazo[1,5-a][1,4]diazepine-1-carboxamide] the value was over 10 µM; for `CNC(=O)[C@@H](NC(=O)c1nc(-c2ccc(C(C)=O)s2)n2c1CN(C)CCC2)C(C)(C)C` [Compound 704, (S)-3-(5-acetylthiophen-2-yl)-N-(3,3-dimethyl-1-(methylamino)-1-oxobutan-2-yl)-8-methyl-6,7,8,9-tetrahydro-5H-imidazo[1,5-a][1,4]diazepine-1-carboxamide], over 10 µM; for `CNC(=O)[C@H](CC(C)(C)C)NC(=O)c1nc(-c2ccc(F)c(Cl)c2)n2c1CN(C)CCC2` [Compound 546, (S)-3-(3-chloro-4-fluorophenyl)-N-(4,4-dimethyl-1-(methylamino)-1-oxopentan-2-yl)-8-methyl-6,7,8,9-tetrahydro-5-imidazo[1,5-a][1,4]diazepine-1-carboxamide], over 10 µM.
The result for `CNC(=O)[C@@H](NC(=O)c1nc(-c2cc(F)c(F)cc2F)n2c1CN(C(C)=O)CCC2)C(C)(C)C` [Compound 818, (S)-8-acetyl-N-(3,3-dimethyl-1-(methylamino)-1-oxobutan-2-yl)-3-(2,4,5-trifluorophenyl)-6,7,8,9-tetrahydro-5H-imidazo[1,4]diazepine-1-carboxamide] reads over 10 µM.
The result for `CN1CCCn2c(-c3cc(Cl)c(F)cc3F)nc(C(=O)N3CC[C@H](O)C3)c2C1` [Compound 910, (S)-(3-(5-chloro-2,4-difluorophenyl)-8-methyl-6,7,8,9-tetrahydro-5H-imidazo[1,5-a][1,4]diazepin-1-yl)(3-hydroxypyrrolidin-1-yl)methanone] reads over 10 µM.
The compound `CNC(=O)[C@@H]1CCN(C(=O)c2nc(-c3cc(Cl)c(F)cc3F)n3c2CN(C)CCC3)C1` [Compound 808, (R)-1-(3-(5-chloro-2,4-difluorophenyl)-8-methyl-6,7,8,9-tetrahydro-5H-imidazo[1,5-a][1,4]diazepine-1-carbonyl)-N-methylpyrrolidine-3-carboxamide] returned an EC50 of over 10 µM.
The result for `CNC(=O)[C@@H](NC(=O)c1nc(C2CCN(C(=O)C(C)C)CC2)n2c1CN(C)CCC2)C(C)(C)C` [Compound 728, (S)-N-(3,3-dimethyl-1-(methylamino)-1-oxobutan-2-yl)-3-(1-isobutyrylpiperidin-4-yl)-8-methyl-6,7,8,9-tetrahydro-5H-imidazo[1,5-a][1,4]diazepine-1-carboxamide] reads over 10 µM; that for `CN1CCCn2c(-c3cc(F)c(F)cc3F)nc(C(=O)NCC3CCOCC3)c2C1` [Compound 764, 8-methyl-N-((tetrahydro-2H-pyran-4-yl)methyl)-3-(2,4,5-trifluorophenyl)-6,7,8,9-tetrahydro-5H-imidazo[1,5-a][1,4]diazepine-1-carboxamide], over 10 µM.
Regarding `CN1CCCn2c(-c3cc(F)c(F)cc3F)nc(C(=O)N3CCC4(CCNC4=O)CC3)c2C1` [Compound 787, 8-(8-methyl-3-(2,4,5-trifluorophenyl)-6,7,8,9-tetrahydro-5H-imidazo[1,5-a][1,4]diazepine-1-carbonyl)-2,8-diazaspiro[4.5]decan-1-one], the EC50 was over 10 µM.
For `CN1CCCn2c(-c3cc(Cl)ccc3F)nc(C(=O)N[C@H](CNS(C)(=O)=O)C(C)(C)C)c2C1` [Compound 771, (S)-3-(5-chloro-2-fluorophenyl)-N-(3,3-dimethyl-1-(methylsulfonamido)butan-2-yl)-8-methyl-6,7,8,9-tetrahydro-5H-imidazo[1,5-a][1,4]diazepine-1-carboxamide] the value was over 10 µM; for `CN1CCCn2c(-c3cc(F)c(F)cc3F)nc(C(=O)N3CCC4(CCN(C)C4=O)CC3)c2C1` [Compound 788, 2-methyl-8-(8-methyl-3-(2,4,5-trifluorophenyl)-6,7,8,9-tetrahydro-5H-imidazo[1,5-a][1,4]diazepine-1-carbonyl)-2,8-diazaspiro[4.5]decan-1-one], over 10 µM.
For `CNC(=O)[C@@H](NC(=O)c1nc(C2CCN(C(=O)c3ccccc3)CC2)n2c1CN(C)CCC2)C(C)(C)C` [Compound 726, (S)-3-(1-benzoylpiperidin-4-yl)-N-(3,3-dimethyl-1-(methylamino)-1-oxobutan-2-yl)-8-methyl-6,7,8,9-tetrahydro-5H-imidazo[1,5-a][1,4]diazepine-1-carboxamide] the value was over 10 µM.
For `CNC(=O)[C@@H](NC(=O)c1nc(-c2cccnc2OC(C)C)n2c1CN(C)CCC2)C(C)(C)C` [Compound 641, (S)-N-(3,3-dimethyl-1-(methylamino)-1-oxobutan-2-yl)-3-(2-isopropoxypyridin-3-yl)-8-methyl-6,7,8,9-tetrahydro-5H-imidazo[1,5-a][1,4]diazepine-1-carboxamide] the value was over 10 µM; for `CNC(=O)[C@@H](NC(=O)c1nc(-c2cccnc2Cl)n2c1CN(C)CCC2)C(C)(C)C` [Compound 628, (S)-3-(2-chloropyridin-3-yl)-N-(3,3-dimethyl-1-(methylamino)-1-oxobutan-2-yl)-8-methyl-6,7,8,9-tetrahydro-5H-imidazo[1,5-a][1,4]diazepine-1-carboxamide], over 10 µM; for `CN1CCN(CC(C)(C)NC(=O)c2nc(-c3cc(Cl)c(F)cc3F)n3c2CN(C)CCC3)CC1` [Compound 879, 3-(5-chloro-2,4-difluorophenyl)-8-methyl-N-(2-methyl-1-(4-methylpiperazin-1-yl)propan-2-yl)-6,7,8,9-tetrahydro-5H-imidazo[1,5-a][1,4]diazepine-1-carboxamide], over 10 µM.
For `CNC(=O)[C@@H](NC(=O)c1nc(-c2ccc(OC(C)C)cc2)n2c1CN(C)CCC2)C(C)(C)C` [Compound 649, (S)-N-(3,3-dimethyl-1-(methylamino)-1-oxobutan-2-yl)-3-(4-isopropoxyphenyl)-8-methyl-6,7,8,9-tetrahydro-5H-imidazo[1,5-a][1,4]diazepine-1-carboxamide], the EC50 was over 10 µM.
The result for `CC(=O)NC[C@@H](NC(=O)c1nc(-c2cc(Cl)ccc2F)n2c1CN(C)CCC2)C(C)(C)C` [Compound 770, (S)-N-(1-acetamido-3,3-dimethylbutan-2-yl)-3-(5-chloro-2-fluorophenyl)-8-methyl-6,7,8,9-tetrahydro-5H-imidazo[1,5-a][1,4]diazepine-1-carboxamide] reads over 10 µM; that for `CN1CCCn2c(-c3cc(F)c(F)cc3F)nc(C(=O)N3CC(O)C3)c2C1` [Compound 856, (3-hydroxyazetidin-1-yl)(8-methyl-3-(2,4,5-trifluorophenyl)-6,7,8,9-tetrahydro-5H-imidazo[1,5-a][1,4]diazepin-1-yl)methanone], over 10 µM.
The result for `CN1CCCn2c(-c3cc(F)c(F)cc3F)nc(C(=O)N3CCCCC3CN3CCOCC3)c2C1` (stereo not drawn) [Compound 789, (8-methyl-3-(2,4,5-trifluorophenyl)-6,7,8,9-tetrahydro-5H-imidazo[1,5-a][1,4]diazepin-1-yl)(2-(morpholinomethyl)piperidin-1-yl)methanone] reads over 10 µM.
Regarding `CNC(=O)[C@@H](NC(=O)c1nc(C2CCN(S(=O)(=O)C(C)C)CC2)n2c1CN(C)CCC2)C(C)(C)C` [Compound 775, (S)-N-(3,3-dimethyl-1-(methylamino)-1-oxobutan-2-yl)-3-(1-(isopropylsulfonyl)piperidin-4-yl)-8-methyl-6,7,8,9-tetrahydro-5H-imidazo[1,5-a][1,4]diazepine-1-carboxamide], the EC50 is over 10 µM.
For `CN1CCCn2c(-c3cc(F)c(F)cc3F)nc(C(=O)N3CCOCC3)c2C1` [Compound 859, (8-methyl-3-(2,4,5-trifluorophenyl)-6,7,8,9-tetrahydro-5H-imidazo[1,5-a][1,4]diazepin-1-yl)(morpholino)methanone] the value was over 10 µM; for `CNC(=O)[C@@H]1CCN(C(=O)c2nc(-c3cc(F)c(F)cc3F)n3c2CN(C)CCC3)C1` [Compound 758, (R)-N-methyl-1-(8-methyl-3-(2,4,5-trifluorophenyl)-6,7,8,9-tetrahydro-5H-imidazo[1,5-a][1,4]diazepine-1-carbonyl)pyrrolidine-3-carboxamide], over 10 µM.
